Reference: PMC7415810, “A novel nucleolin-binding peptide for Cancer Theranostics” (Theranostics, 2020)

Legend:
[1] = system: MCF-10A; assay: Whole-cell binding assay on OBOC peptide beads; format: cell-based, human; design: key: ++++: very strong binding (>40 cells per bead); +++: strong binding (30 -20 cells per bead); ++: moderate binding (20 - 10 cells per bead); +: weak binding (5-10 cells per bead); -: no binding; conditions: peptide on TentaGel beads incubated with cells at 10^6 cells/ml; repeated 3 times
Description: (§1) The beads were washed extensively with double-distilled water and phosphate-buffered saline (PBS; Welgene Inc., Korea) before screening. Cancer and normal cells were detached from culture dishes with trypsin/EDTA (Gibco), washed with their corresponding culture medium, resuspended at 10^6 cells/ml, and incubated with OBOC beads in Petri dishes in a humidified CO2 incubator at 37 °C with shaking (60 rpm). Beads bound by cells appeared under a microscope as rosettes in which a central bead was covered by one or more layers of cells. The positive beads were picked with a pipette under an inverted microscope, treated with guanidine-HCL (8 M, 20 min) to remove cells and proteins on the bead surface, and subjected to a second round of screening with normal breast epithelial cells to eliminate false positive binding.
(§2) Note : Semiquantitative relative binding activity: “++++” very strong binding (>40 cells per bead), “+++” strong binding (30
(§3) -20 cells per bead), “+ +” moderate binding (20 - 10 cells per bead), “+” weak binding (5-10 cells per bead), “-” no binding. […]
(§4) Figure S1. A, Steps performed in peptide library synthesis and screening. 1, The split-mix synthesis method was performed to construct the combinatorial OBOC libraries. […]
(§5) sized. 3, OBOC libraries were incubated with cancer cells in a CO2 incubator. 4, Beads carrying ligands with an affinity for cell surface molecules became covered with cells. 5, The positive beads were picked with a pipette under an inverted microscope. 6, The peptide sequences for positive beads were determined by Edman microse - […]
(§6) peptide libraries. B, The binding specificities of the peptides against cancer cell and normal cells were deter- […]
(§7) breast and colorectal cancer cells and normal breast and colorectal cells were re-suspended at 10^6 cells/ml and incubated with beads. All experiments were repeated 3 times. Scale bar, 200 μm.

[2] = system: MDA-MB-231; assay: Whole-cell binding assay on OBOC peptide beads; format: cell-based, human; conditions: peptide on TentaGel beads incubated with cells at 10^6 cells/ml; repeated 3 times
Description: as §1, §2, §3, §4, §5, §6, §7

[3] = system: MCF-10A cells; assay: cells; conditions: read-out: IC50, MCF-10A cells; 48 h treatment, WST-1
Description: (§8) Cancer and normal cells (1 × 10^4 cells/well) were seeded in 96-well plates, incubated for 24 h, and then treated with increasing concentrations of AGM-330, PTX, and AGM-330-PTX for 48 h. Cell viability was assessed by the CellVia WST-1 assay (Young In Frontier) according to the manufacturer's instructions. The numbers of viable cells were measured at a wavelength of 450 nm using a VersaMax ELISA plate reader (Molecular Devices, San Jose, CA, USA).
(§9) Figure S3. A-C, Cancer and normal cells (1 × 10^4 cells/well) were seeded in 96-well plates. After 24 h of incuba-tion, the cells were treated with an increasing concentration of dimeric or tetrameric AGM-330 for 48 h. The viability of cells grown in 0 % FBS (A), 5 % FBS (B) or 10 % FBS (C) was assessed by a CellVia WST-1 assay (Young In Frontier, Seoul, Korea) according to the manufacturer’s instruction. The numbers of viable cells were measured at a wavelength of 450 nm using an VersaMax ELISA plate reader (Molecular Devices). D, E, Binding specificity of AGM-330. A whole-cell binding assay was performed to determine the cell binding of AGM-330 in 1 % FBS (D) or 5 % FBS (E). Scale bar, 200 μm.

[4] = system: MDA-MB-231 cells; assay: cells; conditions: read-out: IC50, MDA-MB-231 cells; 48 h treatment, WST-1
Description: as §8, §9

[5] = system: HCT-116; conditions: read-out: IC50, HCT-116; 48 h treatment, WST-1
Description: as §8, §9

[6] = system: MCF-7; conditions: read-out: IC50, MCF-7; 48 h treatment, WST-1
Description: as §8, §9

[7] = system: CCD-18Co; conditions: read-out: IC50, CCD-18Co; 48 h treatment, WST-1
Description: as §8, §9

[8] = system: HT-29; conditions: read-out: IC50, HT-29; 48 h treatment, WST-1
Description: as §8, §9

CSCC[C@H](NC(=O)[C@H](C)NC(=O)CNC(=O)[C@H](Cc1c[nH]cn1)NC(=O)[C@@H](N)CCCNC(=N)N)C(=O)N[C@H](C(=O)N[C@@H](Cc1ccc(O)cc1)C(=O)N[C@@H](CC(C)C)C(=O)N[C@@H](CCCCN)C(=O)NCCOCCOCCOCCOCCOCCOCCOCCOCCOCCOCCOCCOCCC(=O)NCCCC[C@H](NC(=O)CCOCCOCCOCCOCCOCCOCCOCCOCCOCCOCCOCCOCCNC(=O)[C@H](CCCCN)NC(=O)[C@H](CC(C)C)NC(=O)[C@H](Cc1ccc(O)cc1)NC(=O)[C@@H](NC(=O)[C@H](CCSC)NC(=O)[C@H](C)NC(=O)CNC(=O)[C@H](Cc1c[nH]cn1)NC(=O)[C@@H](N)CCCNC(=N)N)C(C)C)C(=O)NCCCC[C@H](NC(=O)[C@H](CCCCNC(=O)CCOCCOCCOCCOCCOCCOCCOCCOCCOCCOCCOCCOCCNC(=O)[C@H](CCCCN)NC(=O)[C@H](CC(C)C)NC(=O)[C@H](Cc1ccc(O)cc1)NC(=O)[C@@H](NC(=O)[C@H](CCSC)NC(=O)[C@H](C)NC(=O)CNC(=O)[C@H](Cc1c[nH]cn1)NC(=O)[C@@H](N)CCCNC(=N)N)C(C)C)NC(=O)CCOCCOCCOCCOCCOCCOCCOCCOCCOCCOCCOCCOCCNC(=O)[C@H](CCCCN)NC(=O)[C@H](CC(C)C)NC(=O)[C@H](Cc1ccc(O)cc1)NC(=O)[C@@H](NC(=O)[C@H](CCSC)NC(=O)[C@H](C)NC(=O)CNC(=O)[C@H](Cc1c[nH]cn1)NC(=O)[C@@H](N)CCCNC(=N)N)C(C)C)C(=O)N[C@@H](CS)C(=O)O)C(C)C [AGM-330]
Semiquantitative relative binding activity, MCF-10A [1]: - | Semiquantitative relative binding activity, MDA-MB-231 [2]: ++++ (very strong binding (>40 cells per bead)) | IC50 [3]: > 100 µM | IC50 [4]: > 100 µM | IC50 [5]: > 100 µM | IC50 [6]: > 100 µM | IC50 [7]: > 100 µM | IC50 [8]: > 100 µM
